Data reported in patent US20260308109A1 (priority 2022, published 2026).
Like-named read-outs stand apart in the source and are kept apart here.

How the values were obtained:
[1] = target: T1, 5-HT2B (Homo sapiens, UniProt P41595); test: cell-based; type: cell-based; set-up: expressed in transfected cells; host or cells: HEK293; Emax: dose or concentration left out as unconfirmed
[2] = target: T2, 5-HT2C (Homo sapiens, UniProt P28335); test: In vitro receptor binding ([3H]-LSD), 5-HT2C; set-up: expressed in transfected cells; host or cells: HEK293 (membranes); conditions: for Binding ([3H]-LSD) % Inh: 5-HT2C, HEK293 membrane, radioligand 3H-LSD; for affinity at 5-HT2C: in words; for affinity selectivity for 5-HT2C over 5-HT2A: ratio of Ki
T2 sequence (P28335 33-458): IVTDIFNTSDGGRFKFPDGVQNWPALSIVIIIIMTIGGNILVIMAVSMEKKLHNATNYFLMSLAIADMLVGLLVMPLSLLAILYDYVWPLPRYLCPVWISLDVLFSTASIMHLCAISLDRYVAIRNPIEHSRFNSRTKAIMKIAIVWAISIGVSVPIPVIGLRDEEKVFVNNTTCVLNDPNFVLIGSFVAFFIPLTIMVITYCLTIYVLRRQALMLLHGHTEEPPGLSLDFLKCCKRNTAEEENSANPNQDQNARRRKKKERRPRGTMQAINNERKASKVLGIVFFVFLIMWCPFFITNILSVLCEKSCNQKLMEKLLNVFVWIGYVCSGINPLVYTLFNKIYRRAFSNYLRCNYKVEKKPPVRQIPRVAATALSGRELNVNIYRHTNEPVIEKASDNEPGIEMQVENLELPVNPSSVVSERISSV

[3] = target: T1, 5-HT2B; test: In vitro receptor binding ([3H]-LSD), 5-HT2B; set-up: expressed in transfected cells; host or cells: HEK293 (membranes); conditions: for Binding ([3H]-LSD) % Inh: 5-HT2B, HEK293 membrane, radioligand 3H-LSD; for affinity at 5-HT2B: in words
[4] = target: T2, 5-HT2C; test: cell-based; set-up: expressed in transfected cells; host or cells: HEK293; Emax: dose or concentration left out as unconfirmed
[5] = target: T3, 5-HT2A (Homo sapiens, UniProt P28223); test: cell-based; type: cell-based; set-up: expressed in transfected cells; host or cells: HEK293; Emax: dose or concentration left out as unconfirmed
T3 sequence (P28223 whole entry): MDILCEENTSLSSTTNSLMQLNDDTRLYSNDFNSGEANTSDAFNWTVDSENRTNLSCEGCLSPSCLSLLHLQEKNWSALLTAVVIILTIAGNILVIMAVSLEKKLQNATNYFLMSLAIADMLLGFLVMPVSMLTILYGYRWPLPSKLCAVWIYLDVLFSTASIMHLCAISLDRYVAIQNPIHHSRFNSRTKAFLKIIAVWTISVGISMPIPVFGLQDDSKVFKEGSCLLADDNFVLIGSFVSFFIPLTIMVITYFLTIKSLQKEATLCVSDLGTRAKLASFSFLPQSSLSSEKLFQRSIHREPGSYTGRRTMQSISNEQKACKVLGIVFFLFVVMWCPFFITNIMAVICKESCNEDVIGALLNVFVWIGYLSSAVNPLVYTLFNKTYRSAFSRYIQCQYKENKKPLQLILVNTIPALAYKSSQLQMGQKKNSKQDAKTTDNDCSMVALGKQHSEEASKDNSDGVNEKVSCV

[6] = target: T3, 5-HT2A; test: biochemical; type: binding; set-up: expressed in transfected cells; host or cells: HEK293 (membranes)
[7] = system: TNF-α induced inflammation; conditions: Yu et al. 2008; cited from earlier work
[8] = system: 5-HT2A receptor; conditions: Flanagan et al. 2020; cited from earlier work

T1 sequence (P41595 whole entry): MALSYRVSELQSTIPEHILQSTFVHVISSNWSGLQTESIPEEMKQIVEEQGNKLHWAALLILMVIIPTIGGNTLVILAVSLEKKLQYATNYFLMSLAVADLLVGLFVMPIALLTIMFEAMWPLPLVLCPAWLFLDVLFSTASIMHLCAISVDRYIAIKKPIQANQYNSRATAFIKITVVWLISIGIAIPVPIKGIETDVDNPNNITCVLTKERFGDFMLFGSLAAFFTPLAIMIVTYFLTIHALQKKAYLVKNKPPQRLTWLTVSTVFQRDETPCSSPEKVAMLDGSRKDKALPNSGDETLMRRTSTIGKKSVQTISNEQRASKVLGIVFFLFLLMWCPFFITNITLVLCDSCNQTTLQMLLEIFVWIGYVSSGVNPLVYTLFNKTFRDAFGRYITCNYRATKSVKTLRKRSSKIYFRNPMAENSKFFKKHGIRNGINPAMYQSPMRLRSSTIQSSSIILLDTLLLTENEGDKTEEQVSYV

Row | Compound | Bottom [1] | HillSlope [1] | functional activity at 5-HT2B [1] | EC50 ([1]; EC50) | Emax ([1]; HEK293, read-out: IP-One % MAX) | EC50 ([1]; IP-One EC50) | Emax ([1]; read-out: Top) | Ki [2] | Binding ([3H]-LSD) % Inh [2] | affinity at 5-HT2C [2] | affinity selectivity for 5-HT2C over 5-HT2A [2] | Ki [3] | Binding ([3H]-LSD) % Inh [3] | Bottom [4] | HillSlope [4] | EC50 ([4]; EC50) | Emax ([4]; HEK293, read-out: IP-One % MAX) | EC50 ([4]; IP-One EC50) | Emax ([4]; read-out: Top) | Bottom [5] | other results
1 | COc1cc(CC(C)C)c(OC)c2c1C(CN)C2 (stereo not drawn) [Compound 8, (3-isobutyl-2,5-dimethoxybicyclo[4.2.0]octa-1,3,5-trien-7-yl)methanamine] | −0.5387 % of control | 0.5893 | moderate functional activity | 261 µM | 51% | 0.297 µM | 51.2% | 0.004 µM | 93% | low nanomolar affinity | approximately 33 fold | > 0.095 µM | 29% | 2.175 % of control | 1.285 | 0.00873 µM | 117% | 0.009 µM | 120% | 2.988 % of control | HillSlope [5]: 1.426; functional selectivity for 5-HT2A over 5-HT2B [5]: approximately 148.5 fold; functional selectivity for 5-HT2A over 5-HT2C [5]: approximately 4.5 fold; EC50 ([5]; EC50): 0.0024 µM; Emax ([5]; HEK293, read-out: IP-One % MAX): 113%; EC50 ([5]; IP-One EC50): 0.002 µM; Emax ([5]; read-out: Top): 120%; Binding ([3H]-LSD) % Inh [6]: 2A: 133 nM (65%); Ki [6]: 0.133 µM
2 | CCc1cc(OC)c2c(c1OC)CC2CN (stereo not drawn) [Compound 4, (3-ethyl-2,5-dimethoxybicyclo[4.2.0]octa-1,3,5-trien-7-yl)methanamine] | −0.2984 % of control | 1.088 | significant functional activity | 0.0274 µM | 70% | 0.07 µM | 72.8% | 0.004 µM | 89% | low nanomolar affinity | approximately 6.5 fold | 0.043 µM | 73% | 1.236 % of control | 1.410 | 0.0108 µM | 104% | 0.011 µM | 102% | −0.4425 % of control | affinity at 5-HT2B [3]: low nanomolar affinity; HillSlope [5]: 1.033; functional selectivity for 5-HT2A over 5-HT2B [5]: approximately 17.5 fold; functional selectivity for 5-HT2A over 5-HT2C [5]: approximately 2.75 fold; EC50 ([5]; EC50): 0.00377 µM; Emax ([5]; HEK293, read-out: IP-One % MAX): 114%; EC50 ([5]; IP-One EC50): 0.004 µM; Emax ([5]; read-out: Top): 108%; Binding ([3H]-LSD) % Inh [6]: 2A: 26 nM (90%); Ki [6]: 0.026 µM; affinity at 5-HT2A [6]: low nanomolar affinity; affinity selectivity for 5-HT2A over 5-HT2B [6]: approximately 1.6 fold
3 | CCN(CC)C(=O)[C@@H]1C=C2c3cccc4[nH]cc(c34)C[C@H]2N(C)C1 [LSD, lysergic acid diethylamide] | – | – | – | – | – | – | – | – | – | – | – | – | – | – | – | – | – | – | – | – | effect on TNF-α induced inflammation [7]: same effect, albeit slightly less potent
4 | COc1ccc(OC)c(CCN)c1 [Compound 2C-H, 2,5-dimethoxyphenethylamine] | – | – | – | – | – | – | – | – | – | – | – | – | – | – | – | – | – | – | – | – | anti-inflammatory pharmacophore [8]: primary pharmacophore for anti-inflammatory phenethylamine 5-HT2A receptor agonists
5 | COc1cc(Br)c(OC)c2c1[C@H](CN)C2 [Compound 2C-BCB] | – | – | – | – | – | – | – | – | – | – | – | – | – | – | – | – | – | – | – | – | effect on TNF-α induced inflammation [7]: same effect, albeit slightly less potent
6 | COc1cc(I)c(OC)c2c1C(CN)C2 (stereo not drawn) [Compound 2, (3-iodo-2,5-dimethoxybicyclo[4.2.0]octa-1,3,5-trien-7-yl)methanamine] | 3.780 % of control | 1.531 | minimal functional activity | 0.0891 µM | 49% | > 0.3 µM | 56.2% | 0.003 µM | 96% | low nanomolar affinity | approximately 6 fold | 0.028 µM | 77% | 3.427 % of control | 1.279 | 0.058 µM | 122% | 0.041 µM | 136% | 5.304 % of control | affinity at 5-HT2B [3]: low nanomolar affinity; HillSlope [5]: 1.338; functional selectivity for 5-HT2A over 5-HT2C [5]: approximately 4 fold; EC50 ([5]; EC50): 0.0101 µM; Emax ([5]; HEK293, read-out: IP-One % MAX): 127%; EC50 ([5]; IP-One EC50): 0.01 µM; Emax ([5]; read-out: Top): 124%; Binding ([3H]-LSD) % Inh [6]: 2A: 17 nM (96%); Ki [6]: 0.017 µM; affinity at 5-HT2A [6]: low nanomolar affinity; affinity selectivity for 5-HT2A over 5-HT2B [6]: approximately 1.6 fold
7 | CC1CC(C)N1C(=O)[C@@H]1C=C2c3cccc4[nH]cc(c34)C[C@H]2N(C)C1 (stereo partly drawn) [LA-SS-Az, lysergic acid 2,4-dimethylazetidide] | – | – | – | – | – | – | – | – | – | – | – | – | – | – | – | – | – | – | – | – | effect on TNF-α induced inflammation [7]: same effect, albeit slightly less potent
